{"source": "patent US10914722B2", "about": "“Sensor array and apparatus for simultaneous observation of tissue electrophysiology, contractility, and growth” (Lawrence Livermore National Security, LLC, priority 2017, dated 2021)", "system": "human induced pluripotent stem cell-derived cardiomyocytes (iPS-CMs)", "assay": "simultaneous field potential (MEA), impedance (IDE) and optical recording of cardiac tissue pre-/post-drug exposure and after wash-out", "assay_type": "cell-based", "from_the_text": "Measurements were repeated once more after washing the culture to flush the blebbistatin from the system. FIGS. 7A-7C show the field potential (left) and corresponding impedance changes (right) prior to exposure to blebbistatin (FIG. 7A), after exposure to blebbistatin (FIG. 7B) and following flushing of blebbistatin from the system (FIG. 7C).\nPrior to compound addition, the tissue beat spontaneously and rhythmically at a rate of 14 bpm, as shown from both the FP profile and impedance profile of FIG. 7A.\nHuman iPS-CMs were purchased from Cellular Dynamics International (Madison, Wis.). Cells were stored in liquid nitrogen before use. Prior to cell seeding, device culture chambers were sterilized with 70% ethanol, rinsed with autoclaved water, then incubated overnight with 40 μg/mL fibronectin (Sigma-Aldrich, St Louis, Mo.) at 37° C. Cells were seeded at a density of 120K cells/cm2 and kept in an incubator at 37° C. and 5% CO2. Media was exchanged 4 hrs after seeding, then every 48 hours subsequently.\nThe MEA was connected via electrical connector(s), preferably OMNETICS™ connectors to an AlphaLab SnR multi-channel recording system (Alpha Omega, Alpharetta, Ga.) to record voltages as a function of time across all 16 electrodes of the MEA. Offline analysis of temporal differences between the 16 electrodes when voltage spikes occur generates an activation map. The activation map illustrates FP spatial propagation in the cardiac tissue monolayer across the surface area of the device.\nFor measuring cardiac contraction, high-speed impedance time recording was performed using a Keysight E4990A Impedance Analyzer (Keysight Technologies Inc., Santa Rosa, Calif.) and controlled using custom LabVIEW software (National Instruments, Austin, Tex.). For each device, impedance was measured at multiple frequencies between 5 kHz and 200 kHz to determine the frequency range that gives the highest signal-to-noise ratio.\nNorepinephrine and blebbistatin were purchased from Sigma-Aldrich (St Louis, Mo., USA). Both drugs were dissolved in 0.1% dimethyl sulfoxide and stored at −20° C. Drugs were diluted to desired concentrations in cell media immediately before use. Prior to drug exposure, pre-drug electrophysiology and contraction data of the cardiac tissues on a device were collected for five minutes. Next, cell media was removed from the chamber on the device, drug was added and device was incubated at 37° C. and 5% CO2 for 15 minutes. Recording was again started with the drug. Afterwards, the drug solution was removed and the culture chamber was rinsed three times with cell media, incubated at 37° C. and 5% CO2 for another 15 minutes before performing drug wash-out measurements.", "key": {"[1]": {"settings": "after incubation with 10 μM, FIG. 7B"}}, "data": [{"compound": "Cc1ccc2c(c1)C(=O)C1(O)CCN(c3ccccc3)C1=N2", "note": "(stereo not shown) [blebbistatin]", "values": [{"measurement": "action potential pattern (MEA data)", "setting": "[1]", "result": "not affected"}, {"measurement": "impedance recording (contraction signal, IDE)", "setting": "[1]", "result": "flat baseline signal"}, {"measurement": "tissue contraction observed under an optical microscope", "setting": "after incubation with 10 μM, pre-drug spontaneous beating at 14 bpm, FIG. 7B", "result": "static"}, {"measurement": "tissue contractility after washing out (impedance peaks and optical observation)", "setting": "wash-out after 10 μM exposure, FIG. 7C", "result": "restored the tissue contractility"}]}]}
